Assay results taken from patent US8173638B2 (Boehringer Ingelheim International GmbH, priority 2006, dated 2012).
Read-outs that look alike come from different tables or passages of the source. One block for each compound: values may come before it.

Biological target: T1, human CB2R (Homo sapiens, UniProt P34972)
T1 construct: host or cells: CHO cells
Assay: CB2R mediated modulation of cAMP synthesis
Format: cell-based
Conditions: for agonistic activity: found through the use of the described assays (CB2 agonists), qualitative statement; for Emax: 0.5 h, read-out: Agonist Efficacy (%)
Method: B. CB2R Mediated Modulation of cAMP Synthesis:
CHO cells expressing human CB2R (Euroscreen) were plated at a density of 5000 cells per well in 384 well plates and incubated overnight at 37° C. After removing the media, the cells were treated with test compounds diluted in stimulation buffer containing 1 mM IBMX, 0.25% BSA and 10 uM Forskolin. The assay was incubated for 30 minutes at 37° C. Cells were lysed and the cAMP concentration was measured using DiscoverX-XS cAMP kit, following the manufacturer's protocol. In this setting, agonists will decrease forskolin induced production of cAMP while inverse agonists will further increase forskolin induced production of cAMP. EC50 of agonists were calculated as follows. The maximal amount of cAMP produced by forskolin compared to the level of cAMP inhibited by 1 uM CP55940 is defined as 100%. […] Data was analyzed using a four-parameter logistic model. (Model 205 of XLfit 4.0).

[1] = CHO cells expressing human CB2R, cAMP inhibited by 1 uM CP55940 defined as 100%

T1 sequence (P34972 whole entry): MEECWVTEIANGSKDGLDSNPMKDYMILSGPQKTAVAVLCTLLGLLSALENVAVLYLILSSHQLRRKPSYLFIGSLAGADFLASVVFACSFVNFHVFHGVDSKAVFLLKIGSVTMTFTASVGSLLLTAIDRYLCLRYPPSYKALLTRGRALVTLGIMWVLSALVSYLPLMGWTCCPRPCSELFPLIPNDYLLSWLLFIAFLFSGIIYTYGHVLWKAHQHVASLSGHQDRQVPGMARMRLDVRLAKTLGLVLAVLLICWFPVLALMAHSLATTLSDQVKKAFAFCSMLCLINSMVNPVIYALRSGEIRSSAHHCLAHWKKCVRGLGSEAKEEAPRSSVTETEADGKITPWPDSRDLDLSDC

- agonistic activity: agonistic activity
SMILES: CC(C)(C)c1ccc(NC(=O)N2CCCN(C(=O)CCC(F)(F)F)CC2)cc1 [4-(4,4,4-Trifluoro-butyryl)-[1,4]diazepane-1-carboxylic acid (4-tert-butyl-phenyl)-amide]

- agonistic activity: agonistic activity
SMILES: CCCCc1ccc(NC(=O)N2CCCN(C(=O)C3CCCC3)CC2)cc1 [4-Cyclopentanecarbonyl-[1,4]diazepane-1-carboxylic acid (4-butyl-phenyl)-amide]

- agonistic activity: agonistic activity
SMILES: O=C(Nc1ccc(C(F)(F)F)cc1)N1CCCN(C(=O)C2CCCCC2)CC1 [4-Cyclohexanecarbonyl-[1,4]diazepane-1-carboxylic acid (4-trifluoromethyl-phenyl)-amide]

- agonistic activity: agonistic activity
SMILES: CC(C)(C)c1ccc(NC(=O)N2CCCN(C(=O)CC3CCCCC3)CC2)cc1 [4-(2-Cyclohexyl-acetyl)-[1,4]diazepane-1-carboxylic acid (4-tert-butyl-phenyl)-amide]

- agonistic activity: agonistic activity
SMILES: O=C(CC1CCOCC1)N1CCCN(C(=O)Nc2ccc(OC(F)(F)F)cc2)CC1 [4-(2-Tetrahydro-pyran-4-yl-acetyl)-[1,4]diazepane-1-carboxylic acid (4-trifluoromethoxy-phenyl)-amide]

- Emax [1]: 101%
- EC50 (read-out: hCB2 cAMP EC50): 11 nM
SMILES: CC(C)(C)c1cc(NC(=O)N2CCCN(C(=O)c3ccc(Cl)cc3)CC2)no1 [Compound 141, 4-(4-Chloro-benzoyl)-[1,4]diazepane-1-carboxylic acid (5-tert-butyl-isoxazol-3-yl)-amide]

SMILES: CC(C)(C)c1cc(NC(=O)N2CCCN(C(=O)N3CCCCC3)CC2)no1 [4-(Piperidine-1-carbonyl)-[1,4]diazepane-1-carboxylic acid (5-tert-butyl-isoxazol-3-yl)-amide]
- agonistic activity: agonistic activity

SMILES: CC(C)(C)c1cc(NC(=O)N2CCCN(C(=O)NC3CCCCC3)CC2)no1 [Compound 212, [1,4]Diazepane-1,4-dicarboxylic acid 1-[(5-tert-butyl-isoxazol-3-yl)-amide] 4-cyclohexylamide]
- EC50: 70 nM
- Emax (CHO): 102%

- Emax [1]: 103%
- EC50 (read-out: hCB2 cAMP EC50): 22 nM
SMILES: CC(C)c1ccc(NC(=O)N2CCCN(C(=O)CCC3CCCCC3)CC2)cc1 [Compound 56, 4-(3-Cyclohexyl-propionyl)-[1,4]diazepane-1-carboxylic acid (4-isopropyl-phenyl)-amide]

- agonistic activity: agonistic activity
SMILES: O=C(Nc1nc2c(s1)CCCC2)N1CCCN(C(=O)C2CCOCC2)CC1 [4-(Tetrahydro-pyran-4-carbonyl)-[1,4]diazepane-1-carboxylic acid (4,5,6,7-tetrahydro-benzothiazol-2-yl)-amide]

- agonistic activity: agonistic activity
SMILES: COc1ccc(C(=O)N2CCCN(C(=O)Nc3ccc4ccccc4c3)CC2)cc1 [4-(4-Methoxy-benzoyl)-[1,4]diazepane-1-carboxylic acid naphthalen-2-ylamide]

- Emax [1]: 91%
- EC50 (read-out: hCB2 cAMP EC50): 20 nM
SMILES: O=C(Nc1ccc2ccccc2c1)N1CCCN(C(=O)c2cc(Cl)ccc2Cl)CC1 [Compound 90, 4-(2,5-Dichloro-benzoyl)-[1,4]diazepane-1-carboxylic acid naphthalen-2-ylamide]

- Emax [1]: 91%
- EC50 (read-out: hCB2 cAMP EC50): 58 nM
SMILES: Cc1sc(NC(=O)N2CCCN(C(=O)C3CCOCC3)CC2)nc1C(C)(C)C [Compound 186, 4-(Tetrahydro-pyran-4-carbonyl)-[1,4]diazepane-1-carboxylic acid (4-tert-butyl-5-methyl-thiazol-2-yl)-amide]

- Emax [1]: 104%
- EC50 (read-out: hCB2 cAMP EC50): 24 nM
SMILES: CC(C)(C)c1cc(NC(=O)N2CCCN(C(=O)CN3CCC(F)(F)CC3)CC2)no1 [Compound 229, 4-[2-(4,4-Difluoro-piperidin-1-yl)-acetyl]-[1,4]diazepane-1-carboxylic acid (5-tert-butyl-isoxazol-3-yl)-amide]

SMILES: CC(C)(C)c1cc(NC(=O)N2CCCN(C(=O)NC3CCCC3)CC2)no1
- agonistic activity: agonistic activity

- agonistic activity: agonistic activity
SMILES: CCc1ccc(NC(=O)N2CCCN(C(=O)CC3CCCC3)CC2)cc1 [4-(2-Cyclopentyl-acetyl)-[1,4]diazepane-1-carboxylic acid (4-ethyl-phenyl)-amide]

- Emax [1]: 97%
- EC50 (read-out: hCB2 cAMP EC50): 64 nM
SMILES: CC(C)(C)c1ccc(NC(=O)N2CCCN(C(=O)c3ccc(Cl)c(Cl)c3)CC2)cc1 [Compound 110, 4-(3,4-Dichloro-benzoyl)-[1,4]diazepane-1-carboxylic acid (4-tert-butyl-phenyl)-amide]

- Emax [1]: 87%
- EC50 (read-out: hCB2 cAMP EC50): 71 nM
SMILES: O=C(Nc1ccc(C(F)(F)F)cc1)N1CCCN(C(=O)C2CCC(F)(F)CC2)CC1 [Compound 78, 4-(4,4-Difluoro-cyclohexanecarbonyl)-[1,4]diazepane-1-carboxylic acid (4-trifluoromethyl-phenyl)-amide]

- agonistic activity: agonistic activity
SMILES: CCCCc1ccc(NC(=O)N2CCCN(C(=O)C3CCOCC3)CC2)cc1 [4-(Tetrahydro-pyran-4-carbonyl)-[1,4]diazepane-1-carboxylic acid (4-butyl-phenyl)-amide]

- Emax [1]: 95%
- EC50 (read-out: hCB2 cAMP EC50): 29 nM
SMILES: CC(C)c1ccc(NC(=O)N2CCCN(C(=O)CC3CCCCC3)CC2)cc1 [Compound 36, 4-(2-Cyclohexyl-acetyl)-[1,4]diazepane-1-carboxylic acid (4-isopropyl-phenyl)-amide]

- agonistic activity: agonistic activity
SMILES: CS(=O)(=O)c1ccc(NC(=O)N2CCCN(C(=O)CCC3CCCC3)CC2)cc1 [4-(3-Cyclopentyl-propionyl)-[1,4]diazepane-1-carboxylic acid (4-methanesulfonyl-phenyl)-amide]

SMILES: O=C(Nc1nc(-c2ccccc2)cs1)N1CCCN(C(=O)C2CCC(O)CC2)CC1 (stereo not drawn) [Compound 174, 4-(4-Hydroxy-cyclohexanecarbonyl)-[1,4]diazepane-1-carboxylic acid (4-phenyl-thiazol-2-yl)-amide]
- EC50: 43 nM
- Emax (CHO): 102%

- agonistic activity: agonistic activity
SMILES: CC(C)c1ccc(NC(=O)N2CCCN(C(=O)C3CCOCC3)CC2)cc1 [4-(Tetrahydro-pyran-4-carbonyl)-[1,4]diazepane-1-carboxylic acid (4-isopropyl-phenyl)-amide]

- agonistic activity: agonistic activity
SMILES: CC(C)(C)c1cc(NC(=O)N2CCCN(C(=O)C3CCC(NS(C)(=O)=O)CC3)CC2)no1 (stereo not drawn) [4-(4-Methanesulfonylamino-cyclohexanecarbonyl)-[1,4]diazepane-1-carboxylic acid (5-tert-butyl-isoxazol-3-yl)-amide]

SMILES: CCC(C)c1ccc(NC(=O)N2CCCN(C(=O)CC3CCCC3)CC2)cc1 (stereo not drawn) [Compound 52, 4-(2-Cyclopentyl-acetyl)-[1,4]diazepane-1-carboxylic acid (4-sec-butyl-phenyl)-amide]
- EC50: 7.1 nM
- Emax (CHO): 98%

SMILES: CC(C)(C)c1cc(NC(=O)N2CCCN(C(=O)CC3CCCC3)CC2)no1 [4-(2-Cyclopentyl-acetyl)-[1,4]diazepane-1-carboxylic acid (5-tert-butyl-isoxazol-3-yl)-amide]
- agonistic activity: agonistic activity

- agonistic activity: agonistic activity
SMILES: CC(C)(C)c1cc(NC(=O)N2CCCN(C(=O)c3ccc(Cl)cc3)CC2)no1 [4-(4-Chloro-benzoyl)-[1,4]diazepane-1-carboxylic acid (5-tert-butyl-isoxazol-3-yl)-amide]

- agonistic activity: agonistic activity
SMILES: O=C(Nc1nc(C2CC2)cs1)N1CCCN(C(=O)c2ccc(Cl)cc2)CC1 [4-(4-Chloro-benzoyl)-[1,4]diazepane-1-carboxylic acid (4-cyclopropyl-thiazol-2-yl)-amide]
